Source: ChEMBL document CHEMBL1141234, “Synthesis and SAR of highly potent dual 5-HT1A and 5-HT1B antagonists as potential antidepressant drugs” (Bioorg Med Chem Lett, 2005)
pKi: −log10 of the molar value.

Columns and labels:
[1] = biological target: T1, 5-hydroxytryptamine receptor 1A (Homo sapiens) (UniProt P08908); experiment: Intrinsic activity for 5HT1A receptor in [35S]GTP-gamma-S assay; assay type: functional
T1 sequence (whole entry): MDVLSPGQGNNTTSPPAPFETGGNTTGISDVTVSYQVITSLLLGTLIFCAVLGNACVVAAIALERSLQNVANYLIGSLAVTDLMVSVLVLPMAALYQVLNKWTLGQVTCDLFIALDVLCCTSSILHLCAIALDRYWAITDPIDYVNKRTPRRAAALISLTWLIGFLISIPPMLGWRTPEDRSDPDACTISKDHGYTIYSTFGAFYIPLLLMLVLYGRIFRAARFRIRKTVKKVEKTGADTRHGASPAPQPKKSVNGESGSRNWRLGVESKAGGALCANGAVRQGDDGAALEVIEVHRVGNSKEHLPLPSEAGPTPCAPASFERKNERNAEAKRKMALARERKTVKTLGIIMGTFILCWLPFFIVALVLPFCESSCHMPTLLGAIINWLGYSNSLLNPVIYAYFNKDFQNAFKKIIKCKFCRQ

[2] = biological target: T1, 5-hydroxytryptamine receptor 1A (Homo sapiens); experiment: Functional activity in [35S]GTP-gamma-S assay for 5HT1A receptor
[3] = biological target: T2, 5-hydroxytryptamine receptor 1A (Homo sapiens, UniProt P08908); experiment: Displacement of [35S]GTP-gamma-S from human recombinant 5HT1A receptor; assay type: functional
T2 sequence (P08908 whole entry): T1 sequence (whole entry)

[4] = biological target: T3, 5-hydroxytryptamine receptor 1B (Homo sapiens, UniProt P28222); experiment: Functional activity in FLIPR assay for 5HT1B receptor
T3 sequence (P28222 whole entry): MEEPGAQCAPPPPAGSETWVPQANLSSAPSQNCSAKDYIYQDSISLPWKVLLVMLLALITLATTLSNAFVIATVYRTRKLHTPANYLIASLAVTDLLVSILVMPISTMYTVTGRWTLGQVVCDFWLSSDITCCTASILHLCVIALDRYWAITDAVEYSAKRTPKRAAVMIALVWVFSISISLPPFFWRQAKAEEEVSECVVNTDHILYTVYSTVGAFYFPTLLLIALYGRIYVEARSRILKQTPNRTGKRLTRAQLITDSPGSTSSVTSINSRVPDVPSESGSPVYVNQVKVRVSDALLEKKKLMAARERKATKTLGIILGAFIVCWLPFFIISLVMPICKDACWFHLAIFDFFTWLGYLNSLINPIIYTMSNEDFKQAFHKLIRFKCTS

[5] = biological target: T3, 5-hydroxytryptamine receptor 1B; experiment: Inhibitory activity against human recombinant 5HT1B receptor co-expressed with G-protein chimera Gqo5 in HEK293 cells by FLIPR; assay type: functional, cell-based
[6] = biological target: T4, Adrenergic receptor alpha-1 (Homo sapiens, UniProt P35348+P25100+P35368); experiment: Inhibitory activity against Adrenergic alpha-1 receptor; assay type: protein assay
T4 sequence (P35348 whole entry): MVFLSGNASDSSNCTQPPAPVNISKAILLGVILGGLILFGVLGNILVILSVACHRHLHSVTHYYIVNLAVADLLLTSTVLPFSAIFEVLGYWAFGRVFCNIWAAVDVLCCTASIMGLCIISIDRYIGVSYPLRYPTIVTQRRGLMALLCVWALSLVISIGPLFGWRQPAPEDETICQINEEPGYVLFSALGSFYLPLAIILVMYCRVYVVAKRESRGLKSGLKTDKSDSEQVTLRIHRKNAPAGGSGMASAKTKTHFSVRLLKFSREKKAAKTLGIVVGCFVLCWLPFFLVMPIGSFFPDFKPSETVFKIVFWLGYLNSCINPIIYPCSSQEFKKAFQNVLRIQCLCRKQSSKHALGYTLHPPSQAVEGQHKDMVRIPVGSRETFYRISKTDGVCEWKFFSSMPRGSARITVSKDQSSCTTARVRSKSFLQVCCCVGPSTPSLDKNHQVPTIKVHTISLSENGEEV
T4 sequence (P25100 whole entry): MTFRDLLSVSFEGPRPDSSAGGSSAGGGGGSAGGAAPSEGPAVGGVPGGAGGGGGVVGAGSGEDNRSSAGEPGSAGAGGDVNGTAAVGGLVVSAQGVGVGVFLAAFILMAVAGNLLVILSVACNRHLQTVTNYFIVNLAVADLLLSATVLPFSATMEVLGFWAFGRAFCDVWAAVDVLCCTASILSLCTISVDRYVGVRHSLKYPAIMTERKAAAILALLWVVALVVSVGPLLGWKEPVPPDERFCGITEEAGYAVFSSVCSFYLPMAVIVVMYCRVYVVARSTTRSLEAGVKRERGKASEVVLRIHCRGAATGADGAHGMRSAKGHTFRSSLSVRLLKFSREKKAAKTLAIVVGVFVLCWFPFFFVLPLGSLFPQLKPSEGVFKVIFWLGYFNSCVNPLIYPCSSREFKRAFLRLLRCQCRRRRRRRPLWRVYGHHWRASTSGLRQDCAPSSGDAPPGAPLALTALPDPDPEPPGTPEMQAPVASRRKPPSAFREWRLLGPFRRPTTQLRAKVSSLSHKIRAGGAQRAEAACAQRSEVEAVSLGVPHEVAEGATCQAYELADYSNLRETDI
T4 sequence (P35368 whole entry): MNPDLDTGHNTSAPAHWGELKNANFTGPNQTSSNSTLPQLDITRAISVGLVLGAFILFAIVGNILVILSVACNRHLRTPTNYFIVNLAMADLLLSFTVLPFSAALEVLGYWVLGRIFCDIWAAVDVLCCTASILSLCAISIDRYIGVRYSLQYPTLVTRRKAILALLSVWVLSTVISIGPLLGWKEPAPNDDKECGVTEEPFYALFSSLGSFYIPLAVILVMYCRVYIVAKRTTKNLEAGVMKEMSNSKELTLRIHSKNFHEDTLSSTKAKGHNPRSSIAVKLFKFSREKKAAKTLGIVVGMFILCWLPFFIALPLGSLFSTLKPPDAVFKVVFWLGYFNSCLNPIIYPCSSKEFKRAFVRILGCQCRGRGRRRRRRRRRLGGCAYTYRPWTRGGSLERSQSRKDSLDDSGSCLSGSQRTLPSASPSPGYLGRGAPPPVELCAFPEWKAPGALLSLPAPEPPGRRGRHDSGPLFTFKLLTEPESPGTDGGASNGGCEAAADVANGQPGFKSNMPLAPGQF

[7] = biological target: T3, 5-hydroxytryptamine receptor 1B; experiment: Intrinsic activity for 5HT1B receptor in FLIPR assay; assay type: functional

| Emax [1] [%] | Activity ([2]; filed as partial agonist) | pKi [3] | Activity ([4]; filed as antagonist) | pKi [5] | Ki [6] [nM] | Emax [7] [%] | Activity ([4]; filed as partial agonist) | Activity ([2]; filed as agonist) | Activity ([4]; filed as agonist) | Activity ([2]; filed as antagonist) | Structure (SMILES) |
| --- | --- | --- | --- | --- | --- | --- | --- | --- | --- | --- | --- |
| 10 | Partial agonist | 9.40 | Antagonist | 9.40 | 0.5 | < 20 |  |  |  |  | CN1CCc2c(sc3ncn(CCN4CCN(c5cccc6ccsc56)CC4)c(=O)c23)C1 |
| 10 | Partial agonist | 8.55 |  | 8.77 | 1 | 20 | Partial agonist |  |  |  | CN1CCc2c(sc3ncn(CCN4CCN(c5ccccc5Cl)CC4)c(=O)c23)C1 |
| > 70 |  | 7.59 |  | 8.42 | 14.8 | 20 | Partial agonist | Agonist |  |  | COc1c(Cl)cc(Cl)cc1N1CCN(CCn2cnc3sc4c(c3c2=O)CCN(C)C4)CC1 |
| 10 | Partial agonist | 8.60 |  | 8.85 | 1.8 | > 80 |  |  | Agonist |  | CN1CCc2c(sc3ncn(CCN4CCN(c5ccccc5C#N)CC4)c(=O)c23)C1 |
| 10 | Partial agonist | 8.39 | Antagonist | 8.96 | 1.1 | < 20 |  |  |  |  | CN1CCc2c(sc3ncn(CCN4CCN(c5ccccc5-c5ccccc5)CC4)c(=O)c23)C1 |
|  |  | 6.37 |  | 6.93 | 0.1 |  |  |  |  |  | COc1ccc(-c2ccccc2)cc1N1CCN(CCn2cnc3sc4c(c3c2=O)CCN(C)C4)CC1 |
| < 10 |  | 7.62 | Antagonist | 7.30 | 8.4 | < 20 |  |  |  | Antagonist | COc1ccc(OC)c(N2CCN(CCn3cnc4sc5c(c4c3=O)CCN(C)C5)CC2)c1 |
| < 10 |  | 8.54 |  | 8.46 | 1.7 | 20 | Partial agonist |  |  | Antagonist | Cc1ccccc1N1CCN(CCn2cnc3sc4c(c3c2=O)CCN(C)C4)CC1 |
| 10 | Partial agonist | 8.04 |  | 7.44 | 121.1 | 20 | Partial agonist |  |  |  | CN1CCc2c(sc3ncn(CCN4CCN(c5ccc6ccccc6n5)CC4)c(=O)c23)C1 |
|  |  | 6.98 |  | 7.37 | 18 |  |  |  |  |  | COc1ccc(C(F)(F)F)cc1N1CCN(CCn2cnc3sc4c(c3c2=O)CCN(C)C4)CC1 |
| 10 | Partial agonist | 7.73 | Antagonist | 8.48 | 0.5 | < 20 |  |  |  |  | COc1cc(Cl)ccc1N1CCN(CCn2cnc3sc4c(c3c2=O)CCN(C)C4)CC1 |
| 10 | Partial agonist | 9.05 |  | 9.05 | 129.1 | 20 | Partial agonist |  |  |  | CN1CCc2c(sc3ncn(CCN4CCN(c5cccc6cnccc56)CC4)c(=O)c23)C1 |
| 10 | Partial agonist | 8.25 | Antagonist | 7.92 | 12.1 | < 20 |  |  |  |  | COc1ccc(C)cc1N1CCN(CCn2cnc3sc4c(c3c2=O)CCN(C)C4)CC1 |
| 10 | Partial agonist | 9.15 |  | 9.30 | 41.1 | 20 | Partial agonist |  |  |  | CN1CCc2c(sc3ncn(CCN4CCN(c5nccc6ccccc56)CC4)c(=O)c23)C1 |
| < 10 |  | 9.15 |  | 8.85 | 0.4 | 20 | Partial agonist |  |  | Antagonist | COc1ccccc1N1CCN(CCn2cnc3sc4c(c3c2=O)CCN(C)C4)CC1 |
| 10 | Partial agonist | 9.70 |  | 9.52 | 1.2 | 20 | Partial agonist |  |  |  | CN1CCc2c(sc3ncn(CCN4CCN(c5cccc6cccnc56)CC4)c(=O)c23)C1 |
| 10 | Partial agonist | 7.93 |  | 8.27 | 4.5 | 20 | Partial agonist |  |  |  | COc1ccc2ccccc2c1N1CCN(CCn2cnc3sc4c(c3c2=O)CCN(C)C4)CC1 |
| 10 | Partial agonist | 8.72 |  | 8.92 | 4 | 20 | Partial agonist |  |  |  | CN1CCc2c(sc3ncn(CCN4CCN(c5ccccc5OCc5ccccc5)CC4)c(=O)c23)C1 |
| < 10 |  | 7.03 |  | 6.50 | 6780 | > 80 |  |  | Agonist | Antagonist | CN1CCc2c(sc3ncn(CCN4CCN(c5ncnc6ccccc56)CC4)c(=O)c23)C1 |
| 10 | Partial agonist | 8.60 | Antagonist | 8.31 | 0.2 | < 20 |  |  |  |  | COc1cc(Cl)c(Cl)cc1N1CCN(CCn2cnc3sc4c(c3c2=O)CCN(C)C4)CC1 |
| 10 | Partial agonist | 9.15 |  | 9.30 | 13.2 | 20 | Partial agonist |  |  |  | CN1CCc2c(sc3ncn(CCN4CCN(c5cccc6ccccc56)CC4)c(=O)c23)C1 |
| 10 | Partial agonist | 9.22 | Antagonist | 9.30 | 0.2 | < 20 |  |  |  |  | CN1CCc2c(sc3ncn(CCN4CCN(c5cccc6c5OCC6)CC4)c(=O)c23)C1 |
| 10 | Partial agonist | 8.60 |  | 9.30 | 7 | 20 | Partial agonist |  |  |  | COc1c(Cl)cccc1N1CCN(CCn2cnc3sc4c(c3c2=O)CCN(C)C4)CC1 |
| 10 | Partial agonist | 8.60 | Antagonist | 8.27 | 0.2 | < 20 |  |  |  |  | CN1CCc2c(sc3ncn(CCN4CCN(c5ccccc5OCC(C)(C)C)CC4)c(=O)c23)C1 |
| < 10 |  | 8.82 |  | 8.77 | 26.7 | 20 | Partial agonist |  |  | Antagonist | CN1CCc2c(sc3ncn(CCN4CCN(c5cccc6ncccc56)CC4)c(=O)c23)C1 |
